Assay results from patent US8309537B2, “Compositions and methods for treating colitis” (Aerpio Therapeutics Inc., priority 2009, dated 2012).
Structures can show the parent of a compound that is named as a salt. Where two headings read alike, the source gives them in different places.

Key:
[1] = test system: Mouse Colon 26 tumor cells; test: Xenograft model: Mouse Colon 26 carcinoma in nude mice; type: in vivo; settings: Group 1: 5-FU 10 mg/kg IV once daily for five days alone; Day 27
Procedure: Xenograft Model: Mouse Colon 26 Carcinoma
Nude mice (Harlan Sprague Dawley, Inc., Indianapolis Ind.) were inoculated subcutaneously in the right flank with 0.1 mL of a 0.9% NaCl mixture containing a suspension of Mouse Colon 26 tumor cells (approx. 1×10^6 cells/mouse). Nine days following inoculation, the resulting tumors were measured using vernier calipers and tumor weight was calculated using the formula:
[formula] wherein the width can be taken as the smallest diameter and the length the largest diameter of the tumor. Twenty-four mice having tumors in the range of 75-144 mg were then selected. The mice were randomized into three groups of eight mice each. The body weight of each animal was at taken when the mice were pair-matched on day one and recorded. Body weights were then taken twice weekly thereafter in conjunction with tumor measurements. See Britten C. D. et al., “Enhanced antitumor activity of 6-hydroxymethyl-acylfulvene in combination with irinotecan and 5-fluorouracil in the HT29 human colon tumor xenograft model.” Cancer Res 1999; 59:1049-53, incorporated by reference herein in its entirety.
Beginning on Day 1, 5-fluorouracil (5-FU) was administered intravenously once daily for five days to each animal (Groups 1-3). […] The actual weight of each tumor was recorded.

[2] = Solubility of salts in distilled deionized water (HPLC); type: physicochemical
Procedure: The formulator can determine the solubility of the pharmaceutically acceptable salts of the disclosed inhibitors by any method desirable. The following is a non-limiting example of a procedure for evaluating the solubility of a salt of a disclosed inhibitor. A suspension of tert-butyl-{[1-(4-chlorobenzyl)-3-hydroxy-2-oxo-1,2-dihydropyridin-4-yl]methyl}-piperazine-1-carboxylate methanesulfonate (26.6 mg) in distilled deionized water (3.0 mL) is sonicated for 20 min with water bath temperature under 25° C. The suspension is filtered to remove any insoluble salt. The clear filtrate solution (200 μL) is diluted with distilled deionized water (800 μL) and subjected to HPLC analysis. The following are results for the pharmaceutically acceptable salts outlined in Table VII above.

Row | Compound | Solubility [2] [mg/mL] | also measured
1 | O=c1[nH]cc(F)c(=O)[nH]1 [Compound 5-FU, 5-fluorouracil] | – | Tumor Wgt. [1]: 1926.9 ± 284.9 mg
2 | CC(C)(C)OC(=O)N1CCN(Cc2ccn(Cc3ccc(Cl)cc3)c(=O)c2O)CC1 [Compound A41, tert-Butyl-{[1-(4-chlorobenzyl)-3-hydroxy-2-oxo-1,2-dihydropyridin-4-yl]methyl}piperazine-1-carboxylate] | – | Solubility ([2]; distilled deionized water, sonicated 20 min, bath under 25° C., filtrate by HPLC, listed as Free base): ~0.001 mg/mL
3 | CC(C)(C)OC(=O)N1CCN(Cc2ccn(Cc3ccc(Cl)cc3)c(=O)c2O)CC1 [hydrochloride, tert-butyl-{[1-(4-chlorobenzyl)-3-hydroxy-2-oxo-1,2-dihydropyridin-4-yl]methyl}-piperazine-1-carboxylate] | 5.9 | –
4 | CC(C)(C)OC(=O)N1CCN(Cc2ccn(Cc3ccc(Cl)cc3)c(=O)c2O)CC1 [p-toluenesulfonate, tert-butyl-{[1-(4-chlorobenzyl)-3-hydroxy-2-oxo-1,2-dihydropyridin-4-yl]methyl}-piperazine-1-carboxylate] | 2.3 | –
